This passage reports IC50 and Ratio IC50 results from ChEMBL document CHEMBL3865850, “Discovery of Potent and Selective Leads against Toxoplasma gondii Dihydrofolate Reductase via Structure-Based Design” (ACS Med Chem Lett, 2016).

Experiment [1] concerns the target T1, Bifunctional dihydrofolate reductase-thymidylate synthase (Toxoplasma gondii, UniProt Q07422).
T1 sequence (Q07422 whole entry): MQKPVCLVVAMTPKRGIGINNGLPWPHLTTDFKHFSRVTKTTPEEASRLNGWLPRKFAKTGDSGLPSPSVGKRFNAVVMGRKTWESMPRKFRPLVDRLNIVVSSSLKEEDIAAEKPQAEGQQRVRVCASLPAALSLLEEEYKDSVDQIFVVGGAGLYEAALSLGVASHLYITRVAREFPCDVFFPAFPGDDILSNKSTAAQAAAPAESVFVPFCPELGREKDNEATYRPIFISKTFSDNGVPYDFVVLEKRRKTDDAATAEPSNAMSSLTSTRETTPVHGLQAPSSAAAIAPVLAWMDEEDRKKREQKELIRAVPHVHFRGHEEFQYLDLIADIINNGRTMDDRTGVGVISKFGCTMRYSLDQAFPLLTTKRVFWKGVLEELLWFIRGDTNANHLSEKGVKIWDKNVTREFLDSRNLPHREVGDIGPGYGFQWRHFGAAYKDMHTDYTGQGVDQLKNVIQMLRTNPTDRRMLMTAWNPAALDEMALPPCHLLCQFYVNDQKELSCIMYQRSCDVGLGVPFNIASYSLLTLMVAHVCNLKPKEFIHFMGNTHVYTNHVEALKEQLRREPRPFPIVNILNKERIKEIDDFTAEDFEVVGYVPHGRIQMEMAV
Briefly: Inhibition of Toxoplasma gondii TS-DHFR expressed in Escherichia coli BL21 preincubated for 15 mins followed by addition of DHF as substrate and NADPH measured after 60 mins by resazurin/diaphorase coupled assay. In kind it is cell-free.

The target of another experiment is T2, Dihydrofolate reductase (Homo sapiens, UniProt P00374).
T2 sequence (P00374 whole entry): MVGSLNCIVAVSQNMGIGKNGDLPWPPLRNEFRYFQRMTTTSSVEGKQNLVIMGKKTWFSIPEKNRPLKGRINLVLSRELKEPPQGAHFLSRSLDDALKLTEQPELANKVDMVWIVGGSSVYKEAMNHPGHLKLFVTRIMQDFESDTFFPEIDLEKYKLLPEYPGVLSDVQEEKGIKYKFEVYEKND
Briefly: Inhibition of recombinant human DHFR expressed in Escherichia coli preincubated for 15 mins followed by addition of DHF as substrate and NADPH measured after 60 mins by resazurin/diaphorase coupled assay.

Experiment [2] can be described thus: Selectivity ratio of IC50 for human DHFR to IC50 for Toxoplasma gondii DHFR.

In general, IC50 refers to the midpoint of a concentration-inhibition curve. Consider `Nc1ncc(Cn2cc(-c3cccc(C(F)(F)F)c3)c3ccccc32)c(N)n1`, for which the IC50 in experiment [1] was 980 nM; at Dihydrofolate reductase, above 10000 nM. Moreover, the Ratio IC50 in experiment [2] is above 10.
The like results for `Cc1nc(N)nc(N)c1CN1CCN(c2cccc(-c3cccc(C#N)c3)c2)CC1` were, in that order, 200 nM, 920 nM and 4.7.
The like results for `Cc1nc(N)nc(N)c1C(=O)N1CCN(c2cccc(-c3cccc(C#N)c3)c2)CC1` were, in that order, 3000 nM, above 10000 nM and above 3.3.
Take `Cn1c(-c2cccc(Cl)c2)cc2c(Cl)nc(N)nc21`: the IC50 (in experiment [1]; on Dihydrofolate reductase) was above 10000 nM throughout.
Turning to `Nc1nc(Cl)c2cc(-c3cccc(Cl)c3)[nH]c2n1`, the IC50 was above 10000 nM in experiment [1] and 4200 nM on Dihydrofolate reductase. Besides, the Ratio IC50 in experiment [2] was below 1.
With `Nc1ncc(CN2CCCN(C(=O)c3cccc(C(F)(F)F)c3)CC2)c(N)n1`, the half-maximal inhibitory concentration (IC50) (in experiment [1]; at Dihydrofolate reductase) was above 10000 nM throughout.
As for `Nc1ncc(Cn2cc(-c3cccc(Cl)c3)c3cccnc32)c(N)n1`, the IC50 (in experiment [1]; on Dihydrofolate reductase) was above 10000 nM throughout.
Consider `Cn1c(-c2cccc(Cl)c2)cc2c(N)nc(N)nc21`, for which the IC50 (in experiment [1]; on Dihydrofolate reductase) was above 10000 nM each time.
Take `Nc1ncc(CN2CCN(c3cc(Cl)ccc3OCc3cccc(C(F)(F)F)c3)CC2)c(N)n1`: the IC50 in experiment [1] is 950 nM; on Dihydrofolate reductase it was above 75000 nM. Also, the Ratio IC50 in experiment [2] is above 80.
For `Cn1cc(-c2c(N)nc(N)nc2C2CC2)c2ccccc21`, the IC50 in experiment [1] worked out at 460 nM; at Dihydrofolate reductase, 2800 nM. Further, the Ratio IC50 in experiment [2] was found to be 6.1.
Take `Nc1nc2[nH]c(-c3cccc(Cl)c3)cc2c(=O)[nH]1`: the IC50 (in experiment [1]; on Dihydrofolate reductase) was above 10000 nM in each case.
Regarding `Cc1nc(N)nc(N)c1CN1CCN(c2cc(Cl)ccc2-c2ccccn2)CC1`, the IC50 is 370 nM in experiment [1] and 2100 nM at Dihydrofolate reductase. Also, in experiment [2], the Ratio IC50 was determined as 6.5.
In the same order, the values of `Nc1nc(N)c(-c2c[nH]c3ccccc23)c(C2CC2)n1` are 910 nM, 2500 nM and 2.9.
With `Cc1nc(N)nc(N)c1C(=O)N1CCN(c2cc(Cl)ccc2-c2ccccn2)CC1`, the IC50 (in experiment [1]; at Dihydrofolate reductase) was above 10000 nM each time.
As to `Nc1ncc(Cn2cc(-c3ccc(F)c(F)c3)c3cnccc32)c(N)n1`, the IC50 (in experiment [1]; at Dihydrofolate reductase) was above 10000 nM each time.
On to `Cc1nc(N)nc(N)c1C(=O)N1CCN(c2cccc(-c3ccccc3)c2)CC1`, for which the IC50 in experiment [1] was 2400 nM; on Dihydrofolate reductase it was above 10000 nM. For the same compound, the Ratio IC50 in experiment [2] was above 4.
On to `Nc1ncc(N2CCN(c3ccc(Cl)c(Cl)c3)CC2)c(N)n1`, for which the figures for the IC50 (in experiment [1]; on Dihydrofolate reductase) were 17 nM and 92 nM, respectively. Moreover, the Ratio IC50 in experiment [2] was 10.
The like results for `Cc1nc(N)nc(N)c1CN1CCN(c2cccc(-c3ccccc3)c2)CC1` were, in that order, 1100 nM, 1100 nM and 1.
For `COc1ccc(-c2c[nH]c3nc(N)nc(OC(C)C)c23)cc1C(F)(F)F`, the IC50 (in experiment [1]; at Dihydrofolate reductase) was above 10000 nM throughout.
On to `Nc1ncc(CN2CCN(c3cccc(C(F)(F)F)c3)CC2)c(N)n1`, for which the IC50 in experiment [1] was 80000 nM; at Dihydrofolate reductase it was 9200 nM. Also, the Ratio IC50 in experiment [2] was 0.12.
In the same order, the values of `Nc1ncc(Cn2ccc3c(-c4ccc(C(F)(F)F)cc4)cccc32)c(N)n1` are 2700 nM, above 10000 nM and above 3.5.
